Laboratory results reported in US20020002172A1, “PHARMACEUTICAL FORMULATIONS” (priority 1998, published 2002).
Where a name gives a salt, the structure may show the parent alone.

What was measured:
[1] = solubility of sildenafil forms in water; type: physicochemical
solubility in saliva = type: physicochemical

| solubility in water ([1]; water) | solubility in saliva (solubility in saliva) | solubility of salt form ([1]; medium not stated) | SMILES |
| --- | --- | --- | --- |
| extremely low solubility | extremely low solubility |  | CCCc1nn(C)c2c(=O)[nH]c(-c3cc(S(=O)(=O)N4CCN(C)CC4)ccc3OCC)nc12 [sildenafil free base, 5-[2-ethoxy-5-(4-methylpiperazin-1-ylsulphonyl)-phenyl] -1,6-dihydro-1-methyl-3-propylpyrazolo [4,3-d]pyrimidin-7-one] |
|  |  | highly soluble | CCCc1nn(C)c2c(=O)[nH]c(-c3cc(S(=O)(=O)N4CCN(C)CC4)ccc3OCC)nc12 [sildenafil citrate] |
